Measured values reported in patent US20210094922A1, “Dyes for Analysis of Soluble Protein Aggregates or Misfolded Protein Oligomers” (The Penn State Research Foundation, priority 2018, published 2021).
Entries after “also recorded” stand apart in the source; their conditions may differ.

Experiments:
Parameters in all cases: expressed in transfected cells; host or cells: HEK293T
SOD1(V31A)-Halo [1] = target: SOD1(V31A)-Halo (Rhodococcus rhodochrous, UniProt P0A3G2, A155T/A167V/A172T/A224E/C128F/C176G/D78G/E160K/E257K/H272N/K175M/K195N/L47V/L88M/N227D/P291S/S58T/T264A/Y273L/Y87F); experiment: AggTag imaging of NaAsO2-induced SOD1(V31A)-Halo aggregation in HEK293T cells; type: cell-based, human
Protocol: (§1) During protein expression, medium is supplemented with 1 μM of coumarin ligand and 1 μM of 4 to enable a simultaneous dual-probe labeling to Halo-Tag. Note: Halo-Tag locates in both cytoplasm and nucleus. Blue: fluorescence from the Halo-Tag⋅coumarin conjugate. Red: fluorescence from the Halo-Tag-4 conjugate. Scale bar: 10 μm.
(§2) Confocal microscope imaging. The HEK293T cells were seeded at 25% confluency 24 h prior to transfection in poly-D-lysine coated 35 mm glass bottom dishes (MatTek Corporation). Cells were grown in DMEM media supplemented with 10% FBS and Penicillin-Streptomycin antibiotics until they reached 50-60% confluency. Transfection was carried out using X-tremeGene™ 9 DNA transfection reagent (Roche) according to the manufacturer's instructions. Proteins were expressed for 24 h prior to analyses. To label proteins with Halo-Tag fusion, protein expression was carried out in the presence of 1 μM 4 or 1 μM TMR Halo-Tag ligand to form covalent conjugate with the Halo-Tag domain. For a dual-probe labeling scheme, 1 μM 4 and 1 μM coumarin Halo-Tag ligand to simultaneously form covalent conjugate with the Halo-Tag domain.
(§3) HEK293T cultures were seeded at 25% confluency 24 h prior to transfection in 12-well plate for time dependent fluorescence plate reader analysis or 35 mm glass bottom culture dishes (Poly-d-lysine coated, MatTek Corporation). Cells were grown in DMEM medium supplemented with 10% FBS and penicillin-streptomycin antibiotics until they reached 50-60% confluency. Transfection was performed using X-tremeGene™ 9 DNA transfection reagent (Roche). After 24 h of protein expression and co-translational labeling, medium was replaced with fresh DMEM to diffuse out unbound ligands. After 30 min, media was replaced by fresh DMEM medium containing DMSO vehicle or NaAsO2 (50 μM). […] At indicated time points, fluorescence reading was obtained using a Tecan M1000Pro fluorescence plate reader. Fluorescence intensity was recorded at Ex=530 nm/Em=600 nm for 3 and Ex=450 nm/Em=480 nm for ThT. […] Fluorescence of 3 was measured at Ex=530 nm/Em=600 nm.

SOD1(V31A)-Halo [2] = target: SOD1(V31A)-Halo (UniProt P00441+P0A3G2, A155T/A167V/A172T/A224E/C128F/C176G/D78G/E160K/E257K/H272N/K175M/K195N/L47V/L88M/N227D/S58T/T264A/V32A/Y273L/Y87F); experiment: as above; type: cell-based, human; conditions: NaAsO2
Protocol: as §1, §2, §3

SOD1-A4V-Halo = SOD1-A4V-Halo (Homo sapiens, UniProt P00441, A5V); experiment: Two-color imaging of SOD1-A4V-Halo in HEK293T cells under MG132; type: cell-based; conditions: 4 and 5 both at 0.5 μM, 5 μM MG132 for 8 h
From the text: (B-C) Excitation and emission spectra of 4 (with misfolded oligomers of SOD1-A4V-Halo) and 5 (with insoluble aggregates of SOD1-A4V-Halo).
Combination of 4 and 5 enables a two-color imaging strategy to differentiate insoluble aggregates from soluble oligomers. The inventors carried out live cell imaging experiments, wherein 4 or 5 was used to visualize aggregation of POI-Halo fusion proteins in HEK293T cells. […] To this end, the inventors labeled HEK293T cells expressing SOD1-A4V-Halo simultaneously with 4 and 5 (both at 0.5 μM) for 24 h and treated cells with 5 μM MG132 for 8 h. […] The inventors further carried out experiments using Htt-PolyQ with 110 glutamine repeats (Htt-110Q-Halo).

Sequence of SOD1(V31A)-Halo (Rhodococcus rhodochrous, UniProt P0A3G2, A155T/A167V/A172T/A224E/C128F/C176G/D78G/E160K/E257K/H272N/K175M/K195N/L47V/L88M/N227D/P291S/S58T/T264A/Y273L/Y87F) (P0A3G2 other isoform, or with tags, fused parts or gaps with the stated changes): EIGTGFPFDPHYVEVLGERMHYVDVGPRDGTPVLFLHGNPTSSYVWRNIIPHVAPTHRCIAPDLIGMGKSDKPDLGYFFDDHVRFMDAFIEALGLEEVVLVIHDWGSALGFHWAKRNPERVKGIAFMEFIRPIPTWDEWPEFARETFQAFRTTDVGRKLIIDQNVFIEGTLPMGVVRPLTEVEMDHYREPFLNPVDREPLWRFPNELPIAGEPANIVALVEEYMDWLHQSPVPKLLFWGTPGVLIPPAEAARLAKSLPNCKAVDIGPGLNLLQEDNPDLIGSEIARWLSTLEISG
Sequence of SOD1-A4V-Halo (P00441 with tags, fused parts or gaps A5V limits assumed): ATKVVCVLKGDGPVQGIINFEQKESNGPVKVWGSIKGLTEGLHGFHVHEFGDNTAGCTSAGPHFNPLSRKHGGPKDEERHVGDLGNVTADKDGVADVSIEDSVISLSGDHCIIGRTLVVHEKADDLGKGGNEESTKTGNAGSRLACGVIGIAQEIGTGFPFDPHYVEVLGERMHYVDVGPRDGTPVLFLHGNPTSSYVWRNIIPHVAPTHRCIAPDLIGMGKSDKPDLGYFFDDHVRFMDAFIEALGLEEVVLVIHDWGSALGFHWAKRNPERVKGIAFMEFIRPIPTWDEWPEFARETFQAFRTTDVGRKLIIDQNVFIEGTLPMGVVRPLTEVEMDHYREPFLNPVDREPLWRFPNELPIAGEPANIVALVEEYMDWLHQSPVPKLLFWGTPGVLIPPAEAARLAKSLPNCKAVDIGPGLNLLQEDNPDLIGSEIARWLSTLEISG
Sequence of SOD1(V31A)-Halo (UniProt P00441+P0A3G2, A155T/A167V/A172T/A224E/C128F/C176G/D78G/E160K/E257K/H272N/K175M/K195N/L47V/L88M/N227D/S58T/T264A/V32A/Y273L/Y87F) (P00441+P0A3G2 fused with the stated changes): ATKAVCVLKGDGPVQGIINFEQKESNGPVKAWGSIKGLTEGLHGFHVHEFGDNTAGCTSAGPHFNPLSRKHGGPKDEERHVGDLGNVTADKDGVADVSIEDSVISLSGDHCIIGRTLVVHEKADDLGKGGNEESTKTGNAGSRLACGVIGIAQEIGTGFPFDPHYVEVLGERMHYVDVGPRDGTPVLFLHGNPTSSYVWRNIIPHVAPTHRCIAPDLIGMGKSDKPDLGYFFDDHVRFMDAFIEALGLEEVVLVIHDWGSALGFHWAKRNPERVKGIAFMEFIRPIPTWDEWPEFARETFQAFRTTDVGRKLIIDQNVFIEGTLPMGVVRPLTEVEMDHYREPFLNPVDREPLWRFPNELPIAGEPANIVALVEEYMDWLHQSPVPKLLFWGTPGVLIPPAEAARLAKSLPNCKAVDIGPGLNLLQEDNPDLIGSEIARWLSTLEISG

## CN(C)c1ccc(/C=C2N=C(/C=C/c3ccc(N(CCO)CCO)cc3)N(CC(=O)N[C@H]3CC[C@H](C(=O)NCCOCCOCCCCCCCl)CC3)C\2=O)cc1 [Compound 4, (1r,4r)-4-(2-((Z)-2-((E)-4-(bis(2-hydroxyethyl)amino)styryl)-4-(4-(dimethylamino)benzylidene)-5-oxo-4,5-dihydro-1H-imidazol-1-yl)acetamido)-N-(2-(2-((6-chlorohexyl)oxy)ethoxy)ethyl)cyclohexanecarboxamide]
SOD1(V31A)-Halo [1]; NaAsO2 stressor 50 μM, 18 h, 37° C.
  fluorescence in cells co-expressing Halo-Tag and SOD1-V31A-GFP: turn-on fluorescence was not observed
SOD1(V31A)-Halo [1]; NaAsO2 stressor, Halo-4 conjugate
  fluorescence in cells expressing Halo-Tag alone under stress: remained dark in stressed cells; also recorded: fluorescence was not observed
SOD1(V31A)-Halo [2]
  fluorescence of SOD1(V31A)-Halo labeled cells before and after stress: dark before stress but exhibited both diffuse and punctate fluorescent structures in stressed cells
SOD1-A4V-Halo
  fluorescence of perinuclear SOD1 A4V-Halo granules: only exhibited red fluorescence from 4
